# Legend:
# α1d-AR = target: T1, α1d-AR (Homo sapiens, UniProt P25100); assay: α1-Adrenergic receptor radio-ligand (125I-HEAT) binding assay, α1d subtype; details: COS-7 cell membranes, 125I-HEAT; read-out: Receptor Binding, Ki α1d-AR
# T1 construct: expressed in transfected cells; host or cells: COS-7
# T1 sequence (P25100 1-572): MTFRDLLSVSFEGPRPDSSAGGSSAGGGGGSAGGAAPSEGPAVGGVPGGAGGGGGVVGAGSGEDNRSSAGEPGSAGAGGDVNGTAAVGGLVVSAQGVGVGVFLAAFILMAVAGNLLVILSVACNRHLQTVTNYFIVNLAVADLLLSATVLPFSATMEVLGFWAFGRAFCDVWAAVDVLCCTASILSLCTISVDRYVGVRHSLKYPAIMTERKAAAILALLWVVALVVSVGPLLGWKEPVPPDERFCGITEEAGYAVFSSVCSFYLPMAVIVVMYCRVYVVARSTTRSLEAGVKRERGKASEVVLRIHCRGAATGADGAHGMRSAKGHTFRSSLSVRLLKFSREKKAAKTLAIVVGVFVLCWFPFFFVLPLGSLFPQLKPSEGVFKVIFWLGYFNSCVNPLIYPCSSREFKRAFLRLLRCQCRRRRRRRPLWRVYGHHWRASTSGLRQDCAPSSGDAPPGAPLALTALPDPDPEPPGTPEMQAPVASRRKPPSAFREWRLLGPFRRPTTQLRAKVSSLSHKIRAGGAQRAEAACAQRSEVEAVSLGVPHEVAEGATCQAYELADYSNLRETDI
# IUP = assay: Phenylephrine-induced IUP in a conscious canine model; type: in vivo; details: conscious dog
# Protocol: In-Vivo Evaluation of α1-Adrenergic Antagonists on IUP and MAP in a Conscious Canine Model
# An anesthetized dog was fitted with a balloon catheter for the measurement of changes in prostatic IUP and with a number of implanted pressure transducers and telemetry transmitters for measuring MAP.
# The pressor effects of challenge doses […] of the α-adrenergic agonist phenylephrine upon IUP and MAP were measured before and at various time points after a single dose (p.o.) of an α-adrenergic antagonist test compound (Compound 69) of the present invention.
# Each treatment group was dosed with a test compound (0.1, 0.3, 1.0 and 3.0 mg/kg) in four separate experiments. The first challenge dose of phenylephrine for each treatment group was administered at the time of the test compound dose (time 0). The value for the first challenge dose represents an average of up to three challenge doses administered prior to time 0.
# Subsequent challenge doses for all treatment groups were administered at 30 min. then one hour and two hours after time 0.
# The final challenge doses for the 0.1 and 0.3 mg/kg groups were administered at four and six hours after time 0. The final challenge doses for the 1.0 mg/kg group were administered at four, six and eight hours after time 0. The final challenge doses for the 3.0 mg/kg group were administered at four, six, 12 and 24 hours after time 0.
# A 7F Fogarty balloon catheter lubricated with a water-soluble jelly was inserted into the urethra and advanced into the bladder (approximately 40 cm). The balloon was inflated with approximately water (0.2 mL). The catheter was slowly withdrawn from the bladder to just past the point of first resistance from the bladder neck in order to position the balloon within the prostatic urethra. The balloon was then inflated to approximately 0.7 mL. The balloon port of the catheter was connected to a Gould Statham pressure transducer, the output of which was connected to the pressure input of a Physio Control VSM1 Patient Monitor.
# A test compound was administered via the cephalic or saphenous vein using an appropriately sized IV catheter (Surflo, Terumo Medical Corporation or equivalent).
# Prior to test compound administration, IUP and MAP responses to an individualized dose of phenylephrine (either 10 or 15 μg/kg IV, depending on the individual animal's response) was repeated 2 to 3 times to establish a baseline response. After test compound administration, the individualized phenylephrine dose was administered to each animal at predetermined intervals over a period of up to 24 hours.
# Data for phenylephrine-induced changes in IUP and MAP were tabulated for each treatment group and each experiment. A mean value and standard deviation for the phenylephrine-induced changes to the effect of a test compound on IUP and MAP at each dose was calculated and tabulated for each treatment group over the length of the study.
smiles,measurement,setting,value
"COc1ccc(S(=O)(=O)N[C@H]2CC[C@@H](N3CCN(c4ccccc4OCC(F)(F)F)CC3)CC2)cc1OC [Cpd 69, 3,4-Dimethoxy-N-cis-(4-{4-[2-(2,2,2-trifluoro-ethoxy)-phenyl]-piperazin-1-yl}-cyclohexyl)-benzenesulfonamide]",Ki,α1d-AR,920 pM
same,"IUP, normalized % of baseline (mean)","IUP; 0.1 mg/kg p.o., 0 hrs (baseline)",100%
same,"IUP, normalized % of baseline (mean)","IUP; 0.1 mg/kg p.o., 0.5 hrs after dose",87.3%
same,"IUP, normalized % of baseline (mean)","IUP; 0.1 mg/kg p.o., 1 hrs after dose",78.3%
same,"IUP, normalized % of baseline (mean)","IUP; 0.1 mg/kg p.o., 2 hrs after dose",78.8%
same,"IUP, normalized % of baseline (mean)","IUP; 0.1 mg/kg p.o., 4 hrs after dose",82.5%
same,"IUP, normalized % of baseline (mean)","IUP; 0.1 mg/kg p.o., 6 hrs after dose",86.5%
same,"IUP, normalized % of baseline (mean)","IUP; 0.3 mg/kg p.o., 0 hrs (baseline)",100%
same,"IUP, normalized % of baseline (mean)","IUP; 0.3 mg/kg p.o., 0.5 hrs after dose",63.0%
same,"IUP, normalized % of baseline (mean)","IUP; 0.3 mg/kg p.o., 1 hrs after dose",47.0%
same,"IUP, normalized % of baseline (mean)","IUP; 0.3 mg/kg p.o., 2 hrs after dose",51.1%
same,"IUP, normalized % of baseline (mean)","IUP; 0.3 mg/kg p.o., 4 hrs after dose",70.0%
same,"IUP, normalized % of baseline (mean)","IUP; 0.3 mg/kg p.o., 6 hrs after dose",84.4%
same,"IUP, normalized % of baseline (mean)","IUP; 1.0 mg/kg p.o., 0 hrs (baseline)",100%
same,"IUP, normalized % of baseline (mean)","IUP; 1.0 mg/kg p.o., 0.5 hrs after dose",32.9%
same,"IUP, normalized % of baseline (mean)","IUP; 1.0 mg/kg p.o., 1 hrs after dose",20.6%
same,"IUP, normalized % of baseline (mean)","IUP; 1.0 mg/kg p.o., 2 hrs after dose",28.6%
same,"IUP, normalized % of baseline (mean)","IUP; 1.0 mg/kg p.o., 4 hrs after dose",49.0%
same,"IUP, normalized % of baseline (mean)","IUP; 1.0 mg/kg p.o., 6 hrs after dose",66.3%
same,"IUP, normalized % of baseline (mean)","IUP; 1.0 mg/kg p.o., 8 hrs after dose",70.4%
same,"IUP, normalized % of baseline (mean)","IUP; 3.0 mg/kg p.o., 0 hrs (baseline)",100%
same,"IUP, normalized % of baseline (mean)","IUP; 3.0 mg/kg p.o., 0.5 hrs after dose",5.2%
same,"IUP, normalized % of baseline (mean)","IUP; 3.0 mg/kg p.o., 1 hrs after dose",2.2%
same,"IUP, normalized % of baseline (mean)","IUP; 3.0 mg/kg p.o., 2 hrs after dose",7.0%
same,"IUP, normalized % of baseline (mean)","IUP; 3.0 mg/kg p.o., 4 hrs after dose",17.1%
same,"IUP, normalized % of baseline (mean)","IUP; 3.0 mg/kg p.o., 6 hrs after dose",31.6%
same,"IUP, normalized % of baseline (mean)","IUP; 3.0 mg/kg p.o., 12 hrs after dose",67.7%
same,"IUP, normalized % of baseline (mean)","IUP; 3.0 mg/kg p.o., 24 hrs after dose",93.8%
